{"source": "paper PMC6348446", "about": "(Journal of Medicinal Chemistry, 2018)", "key": {"[1]": {"biological_target": "T1, BRD9 bromodomain (BRD9-BD) (Homo sapiens, UniProt Q9H8M2)", "T1 construct": "the bromodomain (residues 134–239) for BRD9 (Q9H8M2); His6 (cleaved yes); made in house; host or cells: Escherichia coli BL21(DE3)", "T1 sequence (Q9H8M2 134-239)": "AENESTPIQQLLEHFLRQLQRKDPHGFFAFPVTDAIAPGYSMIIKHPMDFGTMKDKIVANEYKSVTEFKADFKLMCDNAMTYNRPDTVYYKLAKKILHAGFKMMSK", "assay": "ITC, BRD9-BD titrated into PROTAC (binary)", "assay_type": "binding", "conditions": "25 °C"}, "[2]": {"biological_target": "T2, VCB (VHL-ElonginC-ElonginB complex) (Homo sapiens, UniProt P40337)", "T2 construct": "His6 (cleaved yes); made in house; host or cells: Escherichia coli BL21(DE3)", "T2 sequence (P40337 54-213 limits assumed)": "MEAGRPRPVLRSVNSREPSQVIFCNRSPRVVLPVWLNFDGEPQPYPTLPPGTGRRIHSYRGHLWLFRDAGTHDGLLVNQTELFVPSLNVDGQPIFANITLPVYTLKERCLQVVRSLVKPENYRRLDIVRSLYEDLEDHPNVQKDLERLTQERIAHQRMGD", "T2 sequence (Q15369 17-112 partner limits assumed)": "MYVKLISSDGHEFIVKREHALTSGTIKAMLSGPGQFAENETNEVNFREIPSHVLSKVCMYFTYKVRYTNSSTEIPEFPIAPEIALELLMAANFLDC", "T2 sequence (Q15370 1-104 partner limits assumed)": "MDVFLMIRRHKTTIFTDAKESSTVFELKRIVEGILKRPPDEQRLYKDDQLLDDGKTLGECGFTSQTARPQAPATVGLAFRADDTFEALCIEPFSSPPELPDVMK", "assay": "ITC, VCB titrated into PROTAC alone (binary)", "assay_type": "binding", "conditions": "25 °C"}, "[3]": {"biological_target": "T3, VCB and BRD9-BD (ternary complex) (Homo sapiens, UniProt P40337+Q9H8M2)", "T3 construct": "the bromodomain (residues 134–239) for BRD9 (Q9H8M2); His6 (cleaved yes); made in house; host or cells: Escherichia coli BL21(DE3)", "T3 sequence (P40337 54-213 limits assumed, one chain of several)": "as the sequence (P40337 54-213 limits assumed) above", "T3 sequence (Q15369 17-112 partner limits assumed, one chain of several)": "as the sequence (Q15369 17-112 partner limits assumed) above", "T3 sequence (Q15370 1-104 partner limits assumed, one chain of several)": "as the sequence (Q15370 1-104 partner limits assumed) above", "assay": "ITC, VCB titrated into BRD9-BD:PROTAC binary complex (ternary)", "assay_type": "binding", "conditions": "25 °C; for N (stoichiometry), VCB into BRD9-BD:PROTAC complex / ΔG, VCB into BRD9-BD:PROTAC complex / ΔH, VCB into BRD9-BD:PROTAC complex / –TΔS, VCB into BRD9-BD:PROTAC complex: ITC; for cooperativity α (ITC): binary versus ternary VCB binding"}, "[4]": {"biological_target": "T4, VCB in the presence of BRD9-BD (Homo sapiens, UniProt P40337+Q9H8M2)", "T4 construct": "the bromodomain (residues 134–239) for BRD9 (Q9H8M2); His6 (cleaved yes); made in house; host or cells: Escherichia coli BL21(DE3)", "T4 sequence (P40337 54-213 limits assumed, one chain of several)": "as the sequence (P40337 54-213 limits assumed) above", "T4 sequence (Q15369 17-112 partner limits assumed, one chain of several)": "as the sequence (Q15369 17-112 partner limits assumed) above", "T4 sequence (Q15370 1-104 partner limits assumed, one chain of several)": "as the sequence (Q15370 1-104 partner limits assumed) above", "assay": "Fluorescence polarization, displacement of FAM-labeled HIF-1α peptide in the presence of BRD9-BD (ternary)", "assay_type": "binding", "conditions": "binary versus ternary"}, "[5]": {"biological_target": "T5, VCB:PROTAC:BRD9-BD ternary complex (Homo sapiens, UniProt P40337+Q9H8M2)", "T5 construct": "the bromodomain (residues 134–239) for BRD9 (Q9H8M2); made in house; host or cells: Escherichia coli BL21(DE3)", "T5 sequence (P40337 54-213 limits assumed, one chain of several)": "as the sequence (P40337 54-213 limits assumed) above", "T5 sequence (Q15369 17-112 partner limits assumed, one chain of several)": "as the sequence (Q15369 17-112 partner limits assumed) above", "T5 sequence (Q15370 1-104 partner limits assumed, one chain of several)": "as the sequence (Q15370 1-104 partner limits assumed) above", "assay": "AlphaLISA proximity assay of ternary complex formation", "assay_type": "binding", "conditions": "for AlphaLISA max intensity: biotinylated VCB 100 nM, His6-BRD9-bromodomain 100 nM", "description": "All assays were performed at room temperature in 384-well plates with a final assay volume of 25 μL per well, as described previously.[5] All reagents were prepared as 5× stocks diluted in 50 mM HEPES, pH 7.5, 100 mM NaCl, 0.1% (w/v) bovine serum albumin, and 0.02% (w/v) 3-[(cholamidopropyl)dimethylammonio]-1-propanesulfonate (CHAPS). Plates were sealed by transparent film and briefly centrifuged at 100g between additions of reagents. Biotinylated VCB (100 nM final) and His6-BRD9-bromodomain (100 nM final) were incubated with a range of PROTAC concentrations (0.5–2000 nM; two-in-one serial dilution) for 1 h. Streptavidin-coated donor beads and nickel chelate acceptor beads (PerkinElmer) were added to a final concentration of 10 μg mL^–1, and plates were incubated for another hour. Plates were read on a PHERAstar FS (BMG Labtech) using an optic module with an excitation wavelength of 680 nm and emission wavelength of 615 nm. Intensity values were plotted against PROTAC concentration on a log10 scale using GraphPad Prism, version 7. To obtain biotinylated-VCB, protein was mixed with EZ-link NHS-PEG4-biotin (Thermo Scientific) in a 1:1 molar ratio and incubated at room temperature for 1 h. The reaction was quenched using 1 M Tris-HCl, pH 7.5, and unreacted NHS-biotin was removed with a PD-10 MiniTrap desalting column (GE Healthcare) equilibrated with 20 mM HEPES, pH 7.5, 150 mM NaCl, and 1 mM DTT."}, "[6]": {"assay": "CHI LogD determination (reverse-phase HPLC)", "assay_type": "physicochemical", "conditions": "reversed-phase HPLC (ACE Excel 3 SuperC18 column), pH 7.4; read-out: CHI LogD (pH7.4)", "description": "removed from both acceptor and donor compartments and mixed with acetonitrile (80 µL) containing an internal standard. The samples were centrifuged (10 min, 5 °C, 3270 g) to sediment precipitated protein and sealed prior to UPLC-MS/MS analysis using a Xevo TQ-S Micro (Waters Corp, USA). Pe was calculated as shown in the below equation: […]\nCA(t) = peak area of compound present in acceptor well at time t = 18000 s Cequi = [CD(t) x VD + CA(t) x VA] / (VD + VA)\nVA = acceptor well volume\nCD(t) = peak area of compound present in donor well at time t = 18000 s Recovery of compound from donor and acceptor wells was calculated and data was only accepted when recovery exceeded 70%.\nUsing a fast gradient, reverse-phase HPLC method to determine the chromatographic hydrophobicity index (CHI) was determined as described by Camurri and Zaramella (ref. 3) and Valko et al. (ref. 4). Briefly, by plotting the retention time of a set of reference […]\ncompounds against known CHI values. The CHI value of test compounds was then calculated according to their retention time.\nTest compounds were prepared as 0.25 mM solutions in 50:50 acetonitrile:water and analysed by reversed-phase HPLC-UV (wavelength 254 nm) using a ACE Excel 3 SuperC18, 3 µm, 50 x 2.1 mm column with a gradient of aqueous phase (10 mM ammonium acetate, pH 7.4) and mobile phase (acetonitrile).\nIntrinsic clearance (Cli) experiments\nTest compound (0.5 µM) was incubated with female CD1 mouse or human (mixed gender) liver microsomes (Xenotech LLCTM; 0.5 mg/mL 50mM potassium phosphate buffer, pH7.4) and the reaction initiated with addition of excess NADPH (8 mg/mL 50 mM potassium phosphate buffer, pH7.4). Immediately, at time zero, then at 3, 6, 9, 15 and 30 minutes an aliquot (50 µL) of the incubation mixture was removed and mixed with acetonitrile (100 µL) to stop the reaction. Internal standard was added to all samples, the samples centrifuged to sediment precipitated protein and the plates then sealed prior to […] analysis using […]\na Xevo TQ-S Micro (Waters corporation, USA).\nXLfit (IDBS, UK) was used to calculate the exponential decay and consequently the rate constant (k) from the ratio of peak area of test compound to internal standard at each timepoint. The rate of intrinsic clearance (CLi) of each test compound was then calculated using the following calculation:\nCLi(mL/min/g liver) = k x V x Microsomal protein yield\nWhere V (mL/mg protein) is the incubation volume/mg protein added and microsomal protein yield is taken as 52.5 mg protein/ g liver. Verapamil (0.5 µM) was used as a positive control to confirm acceptable assay performance."}}, "note": "Several values for one entry are separate records, joined by “and”; a condition that tells them apart may be missing. Equal values may be shown once."}
{"smiles": "COc1cc(-c2cn(C)c(=O)c3cnccc23)cc(OC)c1CN1CCN(CCOCCOCC(=O)N[C@H](C(=O)N2C[C@H](O)C[C@H]2C(=O)NCc2ccc(-c3scnc3C)cc2)C(C)(C)C)CC1", "note": "[Compound 5, (2S,4R)-1-((S)-2-(2-(2-(2-(4-(2,6-Dimethoxy-4-(2-methyl-1-oxo-1,2-dihydro-2,7-naphthyridin-4-yl)benzyl)piperazin-1-yl)ethoxy)ethoxy)acetamido)-3,3-dimethylbutanoyl)-4-hydroxy-N-(4-(4-methylthiazol-5-yl)benzyl)pyrrolidine-2-carboxamide]", "values": [{"measurement": "N (stoichiometry), BRD9-BD into PROTAC", "setting": "[1]", "result": "0.753 ± 0.004"}, {"measurement": "ΔG, BRD9-BD into PROTAC", "setting": "[1]", "result": "–10.7 ± 0.1 kcal/mol"}, {"measurement": "N (stoichiometry), VCB into PROTAC alone", "setting": "[2]", "result": "0.60 ± 0.01"}, {"measurement": "ΔG, VCB into PROTAC alone", "setting": "[2]", "result": "–10.2 ± 0.1 kcal/mol"}, {"measurement": "ΔH, VCB into PROTAC alone", "setting": "[2]", "result": "–15.2 ± 0.1 kcal/mol"}, {"measurement": "N (stoichiometry), VCB into BRD9-BD:PROTAC complex", "setting": "[3]", "result": "0.75 ± 0.05"}, {"measurement": "ΔG, VCB into BRD9-BD:PROTAC complex", "setting": "[3]", "result": "–9.7 ± 0.1 kcal/mol"}, {"measurement": "ΔH, VCB into BRD9-BD:PROTAC complex", "setting": "[3]", "result": "–6.4 ± 0.1 kcal/mol"}, {"measurement": "–TΔS, VCB into BRD9-BD:PROTAC complex", "setting": "[3]", "result": "–3.3 ± 0.1 kcal/mol"}, {"measurement": "cooperativity α (FP)", "setting": "[4]", "result": 0.24}, {"measurement": "AlphaLISA max intensity", "setting": "[5]", "result": "1.0 × 10^6"}]}
{"smiles": "COc1cc(-c2cn(C)c(=O)c3cnccc23)cc(OC)c1CN1CCN(CCOCCOCCOc2cc(-c3scnc3C)ccc2CNC(=O)[C@@H]2C[C@@H](O)CN2C(=O)[C@@H](NC(=O)C2(F)CC2)C(C)(C)C)CC1", "note": "[Compound 26, (2S,4R)-N-(2-(2-(2-(2-(4-(2,6-Dimethoxy-4-(2-methyl-1-oxo-1,2-dihydro-2,7-naphthyridin-4-yl)benzyl)piperazin-1-yl)ethoxy)ethoxy)ethoxy)-4-(4-methylthiazol-5-yl)benzyl)-1-((S)-2-(1-fluorocyclopropane-1-carboxamido)-3,3-dimethylbutanoyl)-4-hydroxypyrrolidine-2-carboxamide]", "values": [{"measurement": "N (stoichiometry), BRD9-BD into PROTAC", "setting": "[1]", "result": 1.00}, {"measurement": "ΔG, BRD9-BD into PROTAC", "setting": "[1]", "result": "–11.0 ± 0.1 kcal/mol"}, {"measurement": "ΔH, BRD9-BD into PROTAC", "setting": "[1]", "result": "–11.4 ± 0.1 kcal/mol"}, {"measurement": "–TΔS, BRD9-BD into PROTAC", "setting": "[1]", "result": "0.44 ± 0.05", "unit": "kcal/mol"}, {"measurement": "N (stoichiometry), VCB into PROTAC alone", "setting": "[2]", "result": 0.99}, {"measurement": "ΔG, VCB into PROTAC alone", "setting": "[2]", "result": "–9.64 ± 0.03 kcal/mol"}, {"measurement": "ΔH, VCB into PROTAC alone", "setting": "[2]", "result": "–6.56 ± 0.09 kcal/mol"}, {"measurement": "–TΔS, VCB into PROTAC alone", "setting": "[2]", "result": "–3.1 ± 0.1 kcal/mol"}, {"measurement": "N (stoichiometry), VCB into BRD9-BD:PROTAC complex", "setting": "[3]", "result": 0.99}, {"measurement": "ΔG, VCB into BRD9-BD:PROTAC complex", "setting": "[3]", "result": "–9.7 ± 0.2 kcal/mol"}, {"measurement": "ΔH, VCB into BRD9-BD:PROTAC complex", "setting": "[3]", "result": "–6.4 ± 0.2 kcal/mol"}, {"measurement": "–TΔS, VCB into BRD9-BD:PROTAC complex", "setting": "[3]", "result": "–3.3 ± 0.2 kcal/mol"}, {"measurement": "cooperativity α (ITC)", "setting": "[3]", "result": "1 and 1.05"}, {"measurement": "cooperativity α (FP)", "setting": "[4]", "result": 1.17}, {"measurement": "increase in the maximum α intensity compared to VCB:5:BRD9-BD", "setting": "[5]; AlphaLISA", "result": 50, "unit": "%"}, {"measurement": "AlphaLISA max intensity", "setting": "[5]", "result": "1.56 × 10^6"}, {"measurement": "chromatographic logD", "setting": "[6]", "result": 2}]}
{"smiles": "COc1cc(-c2cn(C)c(=O)c3cnccc23)cc(OC)c1CN1CCN(CCCCCOc2cc(-c3scnc3C)ccc2CNC(=O)[C@@H]2C[C@@H](O)CN2C(=O)[C@@H](NC(=O)C2(F)CC2)C(C)(C)C)CC1", "note": "[Compound 51, (2S,4R)-N-(2-((5-(4-(2,6-Dimethoxy-4-(2-methyl-1-oxo-1,2-dihydro-2,7-naphthyridin-4-yl)benzyl)piperazin-1-yl)pentyl)oxy)-4-(4-methylthiazol-5-yl)benzyl)-1-((S)-2-(1-fluorocyclopropane-1-carboxamido)-3,3-dimethylbutanoyl)-4-hydroxypyrrolidine-2-carboxamide]", "values": [{"measurement": "N (stoichiometry), BRD9-BD into PROTAC", "setting": "[1]", "result": 0.77}, {"measurement": "ΔG, BRD9-BD into PROTAC", "setting": "[1]", "result": "–11.35 ± 0.05 kcal/mol"}, {"measurement": "ΔH, BRD9-BD into PROTAC", "setting": "[1]", "result": "–12.8 ± 0.1 kcal/mol"}, {"measurement": "N (stoichiometry), VCB into PROTAC alone", "setting": "[2]", "result": 0.73}, {"measurement": "ΔG, VCB into PROTAC alone", "setting": "[2]", "result": "–10.4 ± 0.2 kcal/mol"}, {"measurement": "ΔH, VCB into PROTAC alone", "setting": "[2]", "result": "–7.04 ± 0.08 kcal/mol"}, {"measurement": "–TΔS, VCB into PROTAC alone", "setting": "[2]", "result": "–3.4 ± 0.1 kcal/mol"}, {"measurement": "N (stoichiometry), VCB into BRD9-BD:PROTAC complex", "setting": "[3]", "result": 0.73}, {"measurement": "ΔG, VCB into BRD9-BD:PROTAC complex", "setting": "[3]", "result": "–10.33 ± 0.08 kcal/mol"}, {"measurement": "ΔH, VCB into BRD9-BD:PROTAC complex", "setting": "[3]", "result": "–5.1 ± 0.1 kcal/mol"}, {"measurement": "–TΔS, VCB into BRD9-BD:PROTAC complex", "setting": "[3]", "result": "–5.3 ± 0.1 kcal/mol"}, {"measurement": "cooperativity α (ITC)", "setting": "[3]; listed as VZ185", "result": "0.97 and 0.96"}, {"measurement": "cooperativity α (FP)", "setting": "[4]", "result": 1.00}, {"measurement": "AlphaLISA max intensity", "setting": "[5]", "result": "1.47 × 10^6"}, {"measurement": "chromatographic logD", "setting": "[6]", "result": 2.3}]}
{"smiles": "COc1cc(-c2cn(C)c(=O)c3cnccc23)cc(OC)c1CN1CCN(CCCCCOc2cc(-c3scnc3C)ccc2CNC(=O)[C@@H]2C[C@H](O)CN2C(=O)[C@@H](NC(=O)C2(F)CC2)C(C)(C)C)CC1", "note": "[cisVZ185]", "values": [{"measurement": "chromatographic logD", "setting": "[6]", "result": 2.4}]}
